Test results reported in patent publication US9462803B2, “Organ preservation and/or perfusion” (Philadelphia College of Osteopathic Medicine, priority 2005, dated 2016).
“Also recorded” adds a separate entry of the source. Where no end group is shown, it is not given here.

Assays:
[1] = tested on: isolated perfused rat hearts; test: Isolated perfused rat heart ischemia/reperfusion (I/R) cardiac function, with or without PMNs; conditions: for cardioprotection: I/R+PMN
Description: Male Sprague Dawley rats (275-325 g, Ace Animals, Boyertown, Pa.) were anesthetized with 60 mg/kg pentobarbital sodium intraperitoneally (i.p.). Sodium heparin (1,000 U) was also administered i.p. The hearts were rapidly excised, the ascending aortas were cannulated, and retrograde perfusion of the heart was initiated with a modified Krebs buffer maintained at 37° C. at a constant pressure of 80 mmHg. The Krebs buffer had the following composition (in mmol/l): 17 dextrose, 120 NaCl, 25 NaHCO3, 2.5 CaCl2, 0.5 EDTA, 5.9 KCl, and 1.2 MgCl2. The perfusate was aerated with 95% O2 and 5% CO2 and equilibrated at a pH of 7.3-7.4. The two side arms in the perfusion line proximal to the heart inflow cannula allowed PMNs, plasma without PKC ε peptide inhibitor (control hearts) or plasma containing different concentrations of PKC ε peptide inhibitor (1 or 5 μM) to be directly infused into the coronary inflow line. Coronary flow was monitored by a flow meter (T106, Transonic System, Inc., Ithaca, N.Y.). LVDP and +dP/dtmax were monitored using a pressure transducer (SPR-524, Millar Instruments, Inc., Houston, Tex.), which was positioned in the left ventricular cavity. Hearts were immersed in a water-jacketed reservoir containing 160 mL of Krebs buffer maintained at 37° C. Coronary flow, LVDP and +dP/dtmax were recorded using a Powerlab Station acquisition system (ADInstruments, Grand Junction, Colo.) in conjunction with a computer.
LVDP, +dP/dtmax, and coronary flow were measured every 5 min for 15 min to equilibrate the hearts and obtain a baseline measurement. LVDP was defined as left ventricular end-systolic pressure minus left ventricular end-diastolic pressure. After 15 min, the flow of the Krebs buffer was reduced to zero for 20 min to induce global ischemia. At reperfusion, hearts were infused for 5 min with 200×10^6 PMN resuspended in 5 mL of Krebs buffer plus 5 mL of plasma at a rate of 1 mL/min. In some experiments, PKC ε peptide inhibitor (Genemed Synthesis, Inc., San Francisco, Calif.) was added to plasma at a final concentration of 1 or 5 μM. Sham I/R hearts were not subjected to ischemia and were not perfused with PMNs.
The following groups of isolated perfused rat hearts were used:
Group 1: Sham I/R hearts were not subjected to ischemia and were not perfused with PMNs, but were perfused with 5 mL of plasma (1 mL/min) at 35 minutes into perfusion (the same time point that I/R hearts would be given 5 mL of plasma, 15 minutes of baseline recordings plus 20 minutes ischemia). These hearts represented a control group to determine if the isolated rat heart can maintain LVDP and +dP/dtmax throughout the 80-minute protocol (n=6).
Group 2: Sham I/R+PKC ε peptide inhibitor (5 μM) hearts were not subjected to ischemia and not perfused with PMNs. These hearts were administered the PKC ε peptide inhibitor (5 μM, dissolved in plasma from a 5 mM stock in H2O) 35 minutes into perfusion. This group was employed to determine if the PKC ε peptide inhibitor causes a cardiotonic or cardiodepressant effect (n=6).
Group 3: I/R hearts were subjected to 20 min of ischemia and perfused with 5 mL of plasma (1 mL/min) during the first 5 min of reperfusion, but were not perfused with PMNs. These hearts represented a control group to determine if 20 min of ischemia followed by reperfusion stunned the heart, but LVDP and +dP/dtmax will recover to baseline values (initial) by the end of the 45-minute reperfusion period (n=7).
Group 4: I/R+PKC ε peptide inhibitor (5 μM, dissolved in plasma) hearts were subjected to 20 min of ischemia and not perfused with PMNs. These hearts were perfused with 5 mL of plasma+PKC ε peptide inhibitor during the first 5 min of reperfusion. This group was employed to determine if the PKC ε peptide inhibitor causes a cardiodepressant effect in the setting of I/R without PMNs (n=6). […]

rat aortic endothelium = test: NO release from rat aortic endothelium; conditions: basal 2.12±0.39
Description: FIG. 7 is a graph showing NO release from rat aortic endothelium in untreated (basal) segments compared to PKC ε peptide inhibitor treated segments (1, 5, and 10 μM).
FIG. 7 illustrates the NO release from rat aortic endothelium in untreated (basal) segments compared to PKC ε peptide inhibitor treated segments (1-10 μM). Acetylcholine (Ach) (10 μM) was used as a positive control. […] Although augmenting endothelial derived NO is usually associated with cardioprotection following I/R, it is speculated that the enzyme responsible for endothelial NO release (eNOS) may shift its product profile to the production of superoxide release when the substrate (L-arginine) or co-factor (BH4) is not readily available during early reperfusion.

[2] = I/R hearts without PMNs + inhibitor 5 μM
[3] = Sham I/R hearts (no ischemia, no PMNs) + inhibitor 5 μM, end of 80 min perfusion

PKC ε peptide inhibitor: Peptide inhibitor of PKC ε (Genemed Synthesis); preferred sequence EAVSLKPT (SEQ ID NO: 1), preferably myristoylated at the N-terminus (not fully specified (N-terminus); listed as Homo sapiens)
change in +dP/dtmax, initial vs final [1, 2]: no significant difference
change in LVDP, initial vs final [1, 2]: no significant difference
final LVEDP ([1]; I/R+PMN+inhibitor (5 μM), end of 45 min reperfusion, p<0.01 vs I/R+PMN): 16±2 mmHg
cardioprotection ([1]; 1 μM dose): not cardioprotective
cardioprotection ([1]; 5 μM dose): most cardioprotective
change in +dP/dtmax, initial vs final [1, 3]: did not show any significant change; also recorded: no significant difference
change in LVDP, initial vs final [1, 3]: did not show any significant change; also recorded: no significant difference
direct effect on cardiac contractile function ([1]; Sham I/R hearts, 5 μM): no direct effect
NO release (rat aortic endothelium; 5 μM, p<0.05): 0.66±0.28 pmoles/mg tissue
NO release (rat aortic endothelium; 10 μM): 0.26±0.42 pmoles/mg tissue
